Measurements taken from PMC5218480 (PLoS ONE, 2017).

Test system: MV-4-11 cells
Assay: Gene expression microarray analysis (Affymetrix PrimeView) and GSEA
Type: cell-based, human
Design: RFU PODN (11730768_x_at) / Fold change /veh PODN (11730768_x_at) / RFU LINC00158 (11744669_a_at) / Fold change /veh LINC00158 (11744669_a_at) / RFU DUSP10 (11751237_a_at) / Fold change /veh DUSP10 (11751237_a_at) / RFU ID3 (11757404_x_at) / Fold change /veh ID3 (11757404_x_at) / RFU PLEKHG5 (11737974_s_at) / Fold change /veh PLEKHG5 (11737974_s_at) / RFU LRRC4B (11730491_at) / Fold change /veh LRRC4B (11730491_at) / RFU GIMAP4 (11747438_a_at) / Fold change /veh GIMAP4 (11747438_a_at) / RFU KRT8 (11758183_x_at) / Fold change /veh KRT8 (11758183_x_at) / RFU CNN1 (11734310_a_at) / Fold change /veh CNN1 (11734310_a_at) / RFU VPS37D (11726825_at) / Fold change /veh VPS37D (11726825_at) / RFU C10orf10 (11716522_x_at) / Fold change /veh C10orf10 (11716522_x_at) / RFU KIR2DL2 /// KIR2DL4 /// KIR2DL5A /// KIR2DL5B /// KIR2DS1 /// KIR2DS2 /// KIR2DS3 /// KIR2DS4 /// KIR3DL3 /// KIR3DL3 /// KIR3DS1 (11738374_at) / Fold change /veh KIR2DL2 /// KIR2DL4 /// KIR2DL5A /// KIR2DL5B /// KIR2DS1 /// KIR2DS2 /// KIR2DS3 /// KIR2DS4 /// KIR3DL3 /// KIR3DL3 /// KIR3DS1 (11738374_at) / RFU C1QL1 (11718748_at) / Fold change /veh C1QL1 (11718748_at) / RFU TMPRSS4 (11747572_a_at) / Fold change /veh TMPRSS4 (11747572_a_at) / RFU HAMP (11756126_x_at) / Fold change /veh HAMP (11756126_x_at) / RFU RNFT2 (11725882_a_at) / Fold change /veh RNFT2 (11725882_a_at) / RFU NR4A2 (11747474_a_at) / Fold change /veh NR4A2 (11747474_a_at) / RFU ABCC12 (11746883_a_at) / Fold change /veh ABCC12 (11746883_a_at) / RFU TMEM136 (11760407_x_at) / Fold change /veh TMEM136 (11760407_x_at) / RFU CLDN22 /// WWC2 (11732394_at) / Fold change /veh CLDN22 /// WWC2 (11732394_at) / RFU HLA-DPB1 (11760878_x_at) / Fold change /veh HLA-DPB1 (11760878_x_at) / RFU SPINT1 (11716480_a_at) / Fold change /veh SPINT1 (11716480_a_at) / RFU GAP43 (11754022_s_at) / Fold change /veh GAP43 (11754022_s_at) / RFU A4GNT (11735810_at) / Fold change /veh A4GNT (11735810_at) / RFU PRB3 (11715151_x_at) / Fold change /veh PRB3 (11715151_x_at) / RFU TUBB4B (11761932_at) / Fold change /veh TUBB4B (11761932_at) / RFU CAPN14 (11732068_a_at) / Fold change /veh CAPN14 (11732068_a_at) / RFU TMCC2 (11721928_a_at) / Fold change /veh TMCC2 (11721928_a_at) / RFU IRGQ (11745062_a_at) / Fold change /veh IRGQ (11745062_a_at) / RFU FAM174B (11720279_a_at) / Fold change /veh FAM174B (11720279_a_at) / RFU TMPRSS4 (11748680_a_at) / Fold change /veh TMPRSS4 (11748680_a_at) / RFU FAM212B (11763350_a_at) / Fold change /veh FAM212B (11763350_a_at) / RFU PLEKHG5 (11743358_a_at) / Fold change /veh PLEKHG5 (11743358_a_at) / RFU ZSCAN30 (11745921_a_at) / Fold change /veh ZSCAN30 (11745921_a_at) / RFU CMKLR1 (11741424_a_at) / Fold change /veh CMKLR1 (11741424_a_at) / RFU LOC101060620 /// MAPK8IP1 (11723275_at) / Fold change /veh LOC101060620 /// MAPK8IP1 (11723275_at) / RFU SPTSSB (11747773_x_at) / Fold change /veh SPTSSB (11747773_x_at) / RFU PRSS12 (11739890_at) / Fold change /veh PRSS12 (11739890_at) / RFU BIN1 (11741810_x_at) / Fold change /veh BIN1 (11741810_x_at) / RFU WNT11 (11732464_a_at) / Fold change /veh WNT11 (11732464_a_at) / RFU C10orf10 (11716521_a_at) / Fold change /veh C10orf10 (11716521_a_at) / RFU C5orf56 (11738089_at) / Fold change /veh C5orf56 (11738089_at) / RFU CYB561 (11721691_x_at) / Fold change /veh CYB561 (11721691_x_at) / RFU ANKRD19P (11752326_a_at) / Fold change /veh ANKRD19P (11752326_a_at) / RFU OR2T12 /// OR2T33 /// OR2T8 (11738714_s_at) / Fold change /veh OR2T12 /// OR2T33 /// OR2T8 (11738714_s_at) / RFU VCAN (11748164_a_at) / Fold change /veh VCAN (11748164_a_at) / RFU JSRP1 (11732532_at) / Fold change /veh JSRP1 (11732532_at) / RFU KRTAP10-11 (11738290_x_at) / Fold change /veh KRTAP10-11 (11738290_x_at) / RFU MYO3A (11730013_a_at) / Fold change /veh MYO3A (11730013_a_at) / RFU EBF3 (11725865_a_at) / Fold change /veh EBF3 (11725865_a_at) / RFU CAMK2N1 (11719241_x_at) / Fold change /veh CAMK2N1 (11719241_x_at) / RFU C5orf56 (11738088_a_at) / Fold change /veh C5orf56 (11738088_a_at) / RFU OLFML3 (11715873_a_at) / Fold change /veh OLFML3 (11715873_a_at) / RFU LOC100653217 /// NTM (11731650_a_at) / Fold change /veh LOC100653217 /// NTM (11731650_a_at) / RFU MAPK11 (11762145_a_at) / Fold change /veh MAPK11 (11762145_a_at) / RFU FIZ1 (11724087_x_at) / Fold change /veh FIZ1 (11724087_x_at) / RFU OASL (11726364_x_at) / Fold change /veh OASL (11726364_x_at) / RFU SOX15 (11748057_x_at) / Fold change /veh SOX15 (11748057_x_at) / RFU CD79A (11719716_a_at) / Fold change /veh CD79A (11719716_a_at) / RFU HIST1H1D (11736915_at) / Fold change /veh HIST1H1D (11736915_at) / RFU CASKIN2 (11723855_a_at) / Fold change /veh CASKIN2 (11723855_a_at) / RFU LOC730098 (11760151_x_at) / Fold change /veh LOC730098 (11760151_x_at) / RFU OR4N2 (11742367_at) / Fold change /veh OR4N2 (11742367_at) / RFU PRRT2 (11749266_a_at) / Fold change /veh PRRT2 (11749266_a_at) / RFU SNX32 (11753110_a_at) / Fold change /veh SNX32 (11753110_a_at) / RFU CDHR5 (11726645_a_at) / Fold change /veh CDHR5 (11726645_a_at) / RFU RCAN1 (11760418_a_at) / Fold change /veh RCAN1 (11760418_a_at) / RFU FAM167A (11723789_a_at) / Fold change /veh FAM167A (11723789_a_at) / RFU FAM26E (11764081_at) / Fold change /veh FAM26E (11764081_at) / RFU ISYNA1 (11749810_s_at) / Fold change /veh ISYNA1 (11749810_s_at) / RFU ACY1 (11761880_at) / Fold change /veh ACY1 (11761880_at) / RFU 11764098_at / Fold change /veh 11764098_at / RFU SAMD14 (11745864_x_at) / Fold change /veh SAMD14 (11745864_x_at) / RFU NPB (11741838_a_at) / Fold change /veh NPB (11741838_a_at) / RFU TMPRSS6 (11731388_a_at) / Fold change /veh TMPRSS6 (11731388_a_at) / RFU KRTAP10-2 (11738614_at) / Fold change /veh KRTAP10-2 (11738614_at) / RFU ARHGAP8 /// PRR5-ARHGAP8 (11727945_x_at) / Fold change /veh ARHGAP8 /// PRR5-ARHGAP8 (11727945_x_at) / RFU KRTAP5-7 /// NADSYN1 (11734609_at) / Fold change /veh KRTAP5-7 /// NADSYN1 (11734609_at) / RFU RASL12 (11751679_a_at) / Fold change /veh RASL12 (11751679_a_at) / RFU CDKN2B (11736163_a_at) / Fold change /veh CDKN2B (11736163_a_at) / RFU PRF1 (11729649_at) / Fold change /veh PRF1 (11729649_at) / RFU, ZNF638 /// ZNF638-IT1 / Fold change vs veh, ZNF638 /// ZNF638-IT1 / RFU, PANK3 / Fold change vs veh, PANK3 / RFU, SH3YL1 / Fold change vs veh, SH3YL1 / RFU, ZEB2 / Fold change vs veh, ZEB2 / RFU, NRIP1 / Fold change vs veh, NRIP1 / RFU, PTTG1IP / Fold change vs veh, PTTG1IP / RFU, CAPN2 / Fold change vs veh, CAPN2 / RFU, MED14 / Fold change vs veh, MED14 / RFU, SNORA58 / Fold change vs veh, SNORA58 / RFU, C1orf63 / Fold change vs veh, C1orf63 / RFU, LRRFIP1 / Fold change vs veh, LRRFIP1 / RFU, NDUFAF7 / Fold change vs veh, NDUFAF7 / RFU, SLC12A2 / Fold change vs veh, SLC12A2 / RFU, IBTK / Fold change vs veh, IBTK / RFU, ESF1 / Fold change vs veh, ESF1 / Fold change vs veh, TMEM50B / RFU, TAOK1 / Fold change vs veh, TAOK1 / RFU, ACBD3 / Fold change vs veh, ACBD3 / RFU, TMA16 / Fold change vs veh, TMA16 / RFU, RWDD3 / Fold change vs veh, RWDD3 / RFU, BCAT1 / Fold change vs veh, BCAT1 / RFU, EDEM3 / Fold change vs veh, EDEM3 / RFU, TMEM33 / Fold change vs veh, TMEM33 / RFU, WDR75 / Fold change vs veh, WDR75 / RFU, AHCTF1 / Fold change vs veh, AHCTF1 / RFU, TFRC / Fold change vs veh, TFRC / RFU, ZDHHC17 / Fold change vs veh, ZDHHC17 / RFU, NOM1 / Fold change vs veh, NOM1 / RFU, ARL8B / Fold change vs veh, ARL8B / RFU, ZBTB11 / Fold change vs veh, ZBTB11 / RFU, TAMM41 / Fold change vs veh, TAMM41 / RFU, KIAA1704 /// LOC100996395 / Fold change vs veh, KIAA1704 /// LOC100996395 / RFU, ING1 / Fold change vs veh, ING1 / RFU, TRMT61B / Fold change vs veh, TRMT61B / RFU, FUBP3 / Fold change vs veh, FUBP3 / RFU, TP53 / Fold change vs veh, TP53 / RFU, TNKS2 / Fold change vs veh, TNKS2 / RFU, ZFP14 / Fold change vs veh, ZFP14 / RFU, ACTR2 / Fold change vs veh, ACTR2 / RFU, PPP3R1 / Fold change vs veh, PPP3R1 / RFU, PIK3R1 / Fold change vs veh, PIK3R1 / RFU, HNRNPA1 / Fold change vs veh, HNRNPA1 / RFU, RNF170 / Fold change vs veh, RNF170 / RFU, ZNF28 / Fold change vs veh, ZNF28 / RFU, RNGTT / Fold change vs veh, RNGTT / RFU, OGT / Fold change vs veh, OGT / RFU, BRD1 / Fold change vs veh, BRD1 / RFU, MARS / Fold change vs veh, MARS / RFU, ZNF655 / Fold change vs veh, ZNF655 / RFU, FAHD1 / Fold change vs veh, FAHD1 / RFU, BDP1 / Fold change vs veh, BDP1 / RFU, LRRCC1 / Fold change vs veh, LRRCC1 / RFU, ARID1A / Fold change vs veh, ARID1A / RFU, ZNF146 / Fold change vs veh, ZNF146 / RFU, ZNF330 / Fold change vs veh, ZNF330 / RFU, GPN3 / Fold change vs veh, GPN3 / RFU, C9orf123 / Fold change vs veh, C9orf123 / RFU, N4BP2L2 / Fold change vs veh, N4BP2L2 / RFU, ARFIP1 / Fold change vs veh, ARFIP1 / RFU, FAM179B / Fold change vs veh, FAM179B / RFU, BCL10 / Fold change vs veh, BCL10 / RFU, UHRF1BP1L / Fold change vs veh, UHRF1BP1L / RFU, BET1 / Fold change vs veh, BET1 / RFU, CNOT2 / Fold change vs veh, CNOT2 / RFU, ZNF268 / Fold change vs veh, ZNF268 / Fold change vs veh, ZNF507 / RFU, DGCR2 / Fold change vs veh, DGCR2 / RFU, WDSUB1 / Fold change vs veh, WDSUB1 / Fold change vs veh, HSP90B1 /// MIR3652 / RFU, ADSS / Fold change vs veh, ADSS / RFU, GK / Fold change vs veh, GK / RFU, ZNF148 / Fold change vs veh, ZNF148 / RFU, TAF9 / Fold change vs veh, TAF9 / RFU, SLC1A5 / Fold change vs veh, SLC1A5 / RFU, SLMO2 / Fold change vs veh, SLMO2 / RFU, ABCC4 / Fold change vs veh, ABCC4 / RFU, LOC101060439 /// RAP1B / Fold change vs veh, LOC101060439 /// RAP1B / RFU, RFX7 / Fold change vs veh, RFX7 / RFU, GTPBP10 / Fold change vs veh, GTPBP10 / RFU, CNEP1R1 / Fold change vs veh, CNEP1R1 / RFU, BIVM-ERCC5 /// ERCC5 / Fold change vs veh, BIVM-ERCC5 /// ERCC5 / RFU, ILF3 / Fold change vs veh, ILF3 / RFU 11762660_at / Fold change /veh 11762660_at / RFU VCAN (11757783_s_at) / Fold change /veh VCAN (11757783_s_at) / RFU DDX43 (11728927_at) / Fold change /veh DDX43 (11728927_at) / RFU KRT8 (11758188_x_at) / Fold change /veh KRT8 (11758188_x_at) / RFU NKD1 (11759106_at) / Fold change /veh NKD1 (11759106_at) / RFU SRD5A1 (11742802_a_at) / Fold change /veh SRD5A1 (11742802_a_at) / RFU TPSAB1 /// TPSB2 (11721975_s_at) / Fold change /veh TPSAB1 /// TPSB2 (11721975_s_at) / RFU GSTM3 (11746129_a_at) / Fold change /veh GSTM3 (11746129_a_at) / RFU IL23R (11737362_x_at) / Fold change /veh IL23R (11737362_x_at) / RFU TMEM51 (11727254_a_at) / Fold change /veh TMEM51 (11727254_a_at) / RFU PIWIL2 (11732686_x_at) / Fold change /veh PIWIL2 (11732686_x_at) / RFU ORM1 (11744905_x_at) / Fold change /veh ORM1 (11744905_x_at) / RFU CCDC152 (11743942_at) / Fold change /veh CCDC152 (11743942_at) / RFU ECM1 (11717891_a_at) / Fold change /veh ECM1 (11717891_a_at) / RFU IL23R (11748794_a_at) / Fold change /veh IL23R (11748794_a_at) / RFU TNFAIP8L3 (11732012_x_at) / Fold change /veh TNFAIP8L3 (11732012_x_at) / RFU MBOAT4 (11741988_at) / Fold change /veh MBOAT4 (11741988_at) / RFU 11764193_at / Fold change /veh 11764193_at / RFU TMEM53 (11763286_at) / Fold change /veh TMEM53 (11763286_at) / RFU MAGEB2 (11727129_at) / Fold change /veh MAGEB2 (11727129_at) / RFU TMEM200A (11744735_a_at) / Fold change /veh TMEM200A (11744735_a_at) / RFU CCDC152 (11751479_a_at) / Fold change /veh CCDC152 (11751479_a_at) / RFU FAM211A (11726209_a_at) / Fold change /veh FAM211A (11726209_a_at) / RFU RGS16 (11746705_a_at) / Fold change /veh RGS16 (11746705_a_at) / RFU VCAN (11755009_s_at) / Fold change /veh VCAN (11755009_s_at) / RFU RHOB (11743442_s_at) / Fold change /veh RHOB (11743442_s_at) / RFU RGS16 (11720943_a_at) / Fold change /veh RGS16 (11720943_a_at) / RFU RGS16 (11720944_at) / Fold change /veh RGS16 (11720944_at) / RFU, VPS4B / Fold change vs veh, VPS4B / RFU, CREB1 / Fold change vs veh, CREB1 / RFU, DNAJC13 / Fold change vs veh, DNAJC13 / RFU, GNAQ / Fold change vs veh, GNAQ / RFU, CDK5R1 / Fold change vs veh, CDK5R1 / RFU, ZRANB3 / Fold change vs veh, ZRANB3 / RFU, CUL4A / Fold change vs veh, CUL4A / RFU, CCNY / Fold change vs veh, CCNY / RFU, UFL1 / Fold change vs veh, UFL1 / RFU, COG3 / Fold change vs veh, COG3 / RFU, DIAPH2 / Fold change vs veh, DIAPH2 / RFU, SKA2 / Fold change vs veh, SKA2 / RFU, AFF3 / Fold change vs veh, AFF3 / RFU, LMF1 / Fold change vs veh, LMF1 / RFU, IPO11 / Fold change vs veh, IPO11 / RFU, DFFB / Fold change vs veh, DFFB / RFU, FOXP1 / Fold change vs veh, FOXP1 / RFU, CARD8 / Fold change vs veh, CARD8 / RFU, STRN3 / Fold change vs veh, STRN3 / RFU, ADK / Fold change vs veh, ADK / RFU, RASSF2 / Fold change vs veh, RASSF2 / RFU, WIPF1 / Fold change vs veh, WIPF1 / RFU, LARP1B / Fold change vs veh, LARP1B / RFU, RASA1 / Fold change vs veh, RASA1 / RFU, RB1 / Fold change vs veh, RB1 / RFU, PPFIA1 / Fold change vs veh, PPFIA1 / RFU, MAT2A / Fold change vs veh, MAT2A / RFU, CCT5 / Fold change vs veh, CCT5 / RFU, WDR92 / Fold change vs veh, WDR92 / RFU, CUX1 / Fold change vs veh, CUX1 / RFU, TTC7A / Fold change vs veh, TTC7A / RFU, TMEM135 / Fold change vs veh, TMEM135 / RFU, DEPTOR / Fold change vs veh, DEPTOR / RFU, CPM / Fold change vs veh, CPM / RFU, DNAJB6 / Fold change vs veh, DNAJB6 / RFU, CACNA2D3 / Fold change vs veh, CACNA2D3 / RFU, DTX4 / Fold change vs veh, DTX4 / RFU, TFCP2 / Fold change vs veh, TFCP2 / RFU, GMCL1 /// GMCL1P1 / Fold change vs veh, GMCL1 /// GMCL1P1 / RFU, AEBP2 / Fold change vs veh, AEBP2 / RFU, SNHG1 /// SNORD22 /// SNORD25 /// SNORD26 /// SNORD27 /// SNORD28 /// SNORD29 /// SNORD31 / Fold change vs veh, SNHG1 /// SNORD22 /// SNORD25 /// SNORD26 /// SNORD27 /// SNORD28 /// SNORD29 /// SNORD31 / Fold change (Aza/veh), C12orf56 (ProbeSet 11735607_a_at) / Fold change (ACY-1035/veh), C12orf56 (ProbeSet 11735607_a_at) / Fold change (Aza/veh), FGFR1OP (ProbeSet 11751329_s_at) / Fold change (ACY-1035/veh), FGFR1OP (ProbeSet 11751329_s_at) / Fold change (Aza/veh), VPS36 (ProbeSet 11739960_a_at) / Fold change (ACY-1035/veh), VPS36 (ProbeSet 11739960_a_at) / RFU SYPL1 (11715823_x_at) / Fold change /veh SYPL1 (11715823_x_at) / RFU IGFBP7 (11715501_s_at) / Fold change /veh IGFBP7 (11715501_s_at) / RFU REEP3 (11722064_at) / Fold change /veh REEP3 (11722064_at) / RFU IGLL1 (11728026_x_at) / Fold change /veh IGLL1 (11728026_x_at): dose or concentration left out as unconfirmed
Settings: ProbeSet 11758170_s_at; LIST D

Nc1ccc(-c2cccs2)cc1NC(=O)c1ccc2c(c1)cc(C1CC1)n2CCN1CCOCC1 [ACY-1035]
RFU, DIAPH2: 32.47 RFU
